Data as given in ChEMBL document CHEMBL1201862, “PubChem BioAssay data set” (2004).
Structures can show the parent of a compound that is named as a salt.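 In this assay, cells in 96-well plates receive the compound at five concentrations for 48 hours. Endpoints are linearly interpolated between the surrounding concentrations. GI50 is the concentration that inhibits growth by half.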 Activity calls are given as the source filed them. Rule as the data show it: active = GI50 up to about 1.1 µM and inactive = higher.

Columns and labels:
Experiment in all cases: NCI-60 cell line screen, 48 h
A549 = test system: A549
EKVX = test system: EKVX
IGROV-1 = test system: IGROV-1
K562 = test system: K562
SNB-75 = test system: SNB-75
M14 = test system: M14
M19-MEL = test system: M19-MEL
SR = test system: SR
HOP-92 = test system: HOP-92
RXF 393 = test system: RXF 393
HL-60 = test system: HL-60
NCI-H460 = test system: NCI-H460
SK-MEL-28 = test system: SK-MEL-28
SK-OV-3 = test system: SK-OV-3
OVCAR-8 = test system: OVCAR-8
LXFL 529 = test system: LXFL 529
HT-29 = test system: HT-29
SNB-19 = test system: SNB-19
DU-145 = test system: DU-145
MCF7 = test system: MCF7

Measured: GI50

Cc1ccc(/C=N/NS(=O)(=O)c2ccccc2)cc1C
inactive: A549 > 100 µM | EKVX > 100 µM | IGROV-1 51.5 µM | K562 > 100 µM | SNB-75 > 100 µM | M14 > 100 µM | M19-MEL > 100 µM | SR 86.7 µM | HOP-92 > 100 µM | RXF 393 > 100 µM | HL-60 > 100 µM | NCI-H460 > 100 µM | SK-MEL-28 > 100 µM | SK-OV-3 > 100 µM | OVCAR-8 > 100 µM | LXFL 529 36.5 µM | HT-29 > 100 µM

COC(=O)/C=C/c1c(CC=C(C)C)ncn1C
inactive: A549 70.3 µM | EKVX > 57.1 µM | IGROV-1 > 100 µM | K562 4.63 µM | SNB-75 11.1 µM | M14 16.4 µM | M19-MEL 18.8 µM | SR 4.29 µM | HOP-92 78.7 µM | RXF 393 22.5 µM | HL-60 4.21 µM | NCI-H460 40.2 µM | SK-MEL-28 > 49.5 µM | SK-OV-3 47.9 µM | OVCAR-8 40.2 µM | LXFL 529 55.1 µM | SNB-19 26.1 µM | HT-29 14.4 µM

C=C(CN(C)C)C(=O)c1ccccc1Cl
inactive: A549 > 100 µM | EKVX > 52.1 µM | IGROV-1 > 47 µM | K562 13.1 µM | SNB-75 41.8 µM | M14 19 µM | M19-MEL 18.3 µM | SR 10.8 µM | HOP-92 17.1 µM | RXF 393 15.4 µM | HL-60 5.5 µM | NCI-H460 52.8 µM | SK-MEL-28 7.59 µM | SK-OV-3 > 100 µM | OVCAR-8 18.3 µM | DU-145 36.4 µM | LXFL 529 12.5 µM | SNB-19 63.1 µM | HT-29 19.1 µM

O=c1[nH]c(=O)n(C2OC(CO)C(O)C2O)cc1OCC(F)(F)F (centres undefined)
inactive: A549 > 100 µM | EKVX > 100 µM | IGROV-1 > 100 µM | K562 > 100 µM | SNB-75 > 100 µM | M14 > 100 µM | M19-MEL > 100 µM | SR > 100 µM | HOP-92 > 100 µM | RXF 393 > 100 µM | HL-60 > 100 µM | NCI-H460 > 100 µM | SK-MEL-28 > 100 µM | SK-OV-3 > 100 µM | OVCAR-8 > 100 µM | LXFL 529 > 100 µM | SNB-19 > 100 µM | HT-29 > 100 µM

CC(=O)OC1CC[C@@]2(C)C(CC[C@]3(C)C2CC=C2[C@@H]4C(C)[C@H](C)CCC4(C)CCC23C)[C@@]1(C)C(=O)O (some centres undefined)
inactive: A549 17.5 µM | EKVX 18 µM | IGROV-1 20.6 µM | K562 25.9 µM | SNB-75 19.2 µM | M14 22.3 µM | M19-MEL 23.1 µM | SR 27.9 µM | HOP-92 21.2 µM | RXF 393 21.7 µM | HL-60 27.4 µM | NCI-H460 23.5 µM | SK-MEL-28 23.7 µM | SK-OV-3 18.4 µM | OVCAR-8 23.6 µM | DU-145 17.9 µM | LXFL 529 17.3 µM | MCF7 16 µM | SNB-19 22.9 µM | HT-29 21.2 µM

C[C@]12CC[C@@H]3c4ccc(O)cc4CC[C@H]3[C@@H]1CC[C@@H]2OC(=O)CCC1CCCC1 [ESTRADIOL CYPIONATE]
inactive: A549 17.8 µM | EKVX 7.45 µM | IGROV-1 17.6 µM | K562 17.2 µM | M14 20.1 µM | M19-MEL 27.4 µM | SR 17.8 µM | HOP-92 23.1 µM | RXF 393 10.4 µM | HL-60 17.8 µM | NCI-H460 18.7 µM | SK-MEL-28 18.2 µM | SK-OV-3 19.4 µM | OVCAR-8 16.7 µM | DU-145 13.7 µM | LXFL 529 17.5 µM | MCF7 17.1 µM | SNB-19 16.9 µM | HT-29 17.9 µM

N[C@@H](Cc1ccc(N(CCCl)CCCl)cc1)C(=O)O [MELPHALAN HYDROCHLORIDE]
inactive: A549 28.7 µM | K562 50.7 µM | SNB-75 34.7 µM | M14 24.5 µM | M19-MEL 39.6 µM | SR 1.71 µM | HOP-92 36.8 µM | RXF 393 28.9 µM | HL-60 2.51 µM | NCI-H460 7.35 µM | SK-MEL-28 57.8 µM | SK-OV-3 32 µM | OVCAR-8 35.2 µM | DU-145 47.2 µM | LXFL 529 49.3 µM | MCF7 11.1 µM | SNB-19 51.6 µM | HT-29 75.3 µM
